Columns and labels:
[1] = tested on: reactions of pain (abdominal twists), phenyl benzoquinone; experiment: analgesic action: inhibition of phenyl benzoquinone-induced reactions of pain (abdominal twists); assay type: in vivo, male mice (SPF, OFI strain); settings: mice, pain reactions counted from 5 to 10 minute
Method: (§1) The analgesic action of the product was determined by the following method: batches of 6 male mice (SPF, OFI strain), weighing 19 to 20 g, received the test product by intravenous means. 0.3 c.c. per mouse of a 0.02% solution of phenyl benzoquinone was simultaneously injected by intraperitoneal means and the number of reactions of pain (abdominal twists) was counted from the 5 to the 10 minute after the latter treatment.
The following Table I gives the inhibitory percentage of these reactions.

solubility in water = assay type: physicochemical; settings: novel derivative
[2] = release of p-acetamidophenol in the organism
[3] = pharmacological properties compared with paracetamol; assay type: in vivo
Method: as §1
The antihyperthermisant action of the product according to the invention was determined by the following method: batches of 5 male Fauve de Bourgogne rabbits weighing 2 to 3 kg receive by intraveneous means 1 c.c./kg of an endotoxin solution of Salmonella abortus equivalent to 1 γ/kg in the physiological serum.
Two and a half hours later, the test product was administered in a physiological solution by intraveneous means.
The rectal temperature was recorded at regular intervals by an Ellab thermocouple. The probe was pressed 80 mm in.

[4] = stability of aqueous solutions; assay type: physicochemical; settings: with the passage of time

CCN(CC)CC(=O)Oc1ccc(NC(C)=O)cc1 [p-acetamidophenyl diethylaminoacetate]
% of inhibition ([1]; 8 mg/kg I.V.): 26% | % of inhibition ([1]; 16 mg/kg I.V.): 41% | % of inhibition ([1]; 32 mg/kg I.V.): 68% | % of inhibition ([1]; 64 mg/kg I.V.): 94% | solubility in water (solubility in water): very soluble in water | release of p-acetamidophenol [2]: rapidly releases p-acetamidophenol | pharmacological properties [3]: comparable to those of paracetamol | stability of aqueous solutions [4]: stable with the passage of time

Reference: US4127671A, “P-acetamidophenyl diethylaminoacetate” (Societe Anonyme dite: HEXACHIME, priority 1977, dated 1978)
